In experiment [1] the target is T1, human amylin receptor (calcitonin receptor co-expressed with receptor activity modifying protein, RAMP3) (hAMYR3) (Homo sapiens, UniProt O60896+P30988).
T1 construct: expressed in transfected cells
T1 sequence (P30988 25-474): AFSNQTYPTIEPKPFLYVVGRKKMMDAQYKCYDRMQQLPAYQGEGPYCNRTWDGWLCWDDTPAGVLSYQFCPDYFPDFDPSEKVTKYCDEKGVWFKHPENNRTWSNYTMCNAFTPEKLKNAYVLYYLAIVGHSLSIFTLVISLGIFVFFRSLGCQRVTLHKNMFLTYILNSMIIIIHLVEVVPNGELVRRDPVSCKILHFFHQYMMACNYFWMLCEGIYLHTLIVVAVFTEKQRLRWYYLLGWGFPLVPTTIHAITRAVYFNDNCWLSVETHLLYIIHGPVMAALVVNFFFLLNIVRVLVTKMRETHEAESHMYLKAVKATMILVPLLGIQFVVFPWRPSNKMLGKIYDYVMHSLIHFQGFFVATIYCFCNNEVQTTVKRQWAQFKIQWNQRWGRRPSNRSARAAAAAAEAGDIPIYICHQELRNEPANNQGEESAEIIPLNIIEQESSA
T1 sequence (O60896 24-148 partner): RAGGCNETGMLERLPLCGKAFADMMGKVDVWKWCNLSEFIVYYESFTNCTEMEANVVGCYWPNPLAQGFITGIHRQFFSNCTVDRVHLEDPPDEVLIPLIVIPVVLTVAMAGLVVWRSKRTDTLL
Nature of the experiment: cAMP production in 1321N1 cells with stable recombinant expression of human amylin receptor (hAMYR3). It counts as cell-based. To be noted: for Ratio (selectivity hAMYR vs hCTR, ratio of EC50 values at the two receptors): EC50 hCTR / EC50 hAMYR3; for EC50: cAMP, 1321N1 cells, assay buffer with 0.1% BSA, read-out: EC50 (pM) hAMYR3. The procedure, abridged:
(§1)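 EC50 values come from 4-parameter logistic fits of HTRF cAMP signal, normalised to maximal calcitonin or amylin effect. Peptides were tested in duplicate for 30 min at RT in IBMX-containing (0.5 mM) BSA/HEPES buffer pH 7.4 on stable 1321N1 (human CTR, AMYR3) or HEK (rat CTR, AMYR3) lines.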
On the technique in general: Changes in cAMP serve as a functional read-out for many G protein-coupled receptors.

In experiment [2] the target is T2, human calcitonin receptor (hCTR) (Homo sapiens, UniProt P30988).
T2 construct: expressed in transfected cells
T2 sequence (P30988 25-474): T1 sequence (P30988 25-474)
Nature of the experiment: cAMP production in 1321N1 cells with stable recombinant expression of human calcitonin receptor (hCTR). It counts as cell-based. To be noted: cAMP, 1321N1 cells, assay buffer with 0.1% BSA; read-out: EC50 (pM) hCTR. The procedure, abridged:
as §1

Numbered stars: 1 amine (or outer) side, 2 acyl side, 3 side chain; on linkers, the order of the positions; unused ones are H or OH. Bridge positions count the residues as written; N and C are the ends. Square brackets hold non-standard residues; d marks the D form. Side chains are listed from the residue outwards. Peptide text beside a SMILES is read from it. * marks the point of attachment. C18 diacid = O=C(O)CCCCCCCCCCCCCCCCC(=O)*; γGlu = O=C(O)[C@H](CCC(=O)[*:2])N[*:1]; Aib = CC(C)(N)C(=O)O

`CC[C@H](C)[C@H](NC(=O)[C@@H]1CCCN1C(=O)CNC(=O)[C@H](Cc1ccccc1)NC(=O)[C@H](CC(N)=O)NC(=O)[C@H](CC(N)=O)NC(=O)[C@H](CO)NC(=O)[C@H](CO)NC(=O)[C@H](Cc1c[nH]cn1)NC(=O)C(C)(C)NC(=O)[C@H](CC(C)C)NC(=O)[C@H](Cc1ccccc1)NC(=O)[C@H](CC(N)=O)NC(=O)[C@H](C)NC(=O)[C@H](CC(C)C)NC(=O)[C@H](CCCNC(=N)N)NC(=O)[C@H](CCC(N)=O)NC(=O)[C@@H](NC(=O)[C@H](C)NC(=O)[C@@H]1CSSC[C@H](NC(=O)[C@@H](N)CCCCNC(=O)CC[C@H](NC(=O)CC[C@H](NC(=O)CCCCCCCCCCCCCCCCC(=O)O)C(=O)O)C(=O)O)C(=O)N[C@@H](CC(N)=O)C(=O)N[C@@H]([C@@H](C)O)C(=O)N[C@@H](C)C(=O)N[C@@H]([C@@H](C)O)C(=O)N1)[C@@H](C)O)C(=O)N[C@@H](CC(C)C)C(=O)N1CCC[C@H]1C(=O)N1CCC[C@H]1C(=O)N[C@H](C(=O)N[C@@H](CC(N)=O)C(=O)N[C@H](C(=O)NCC(=O)N[C@@H](CO)C(=O)N[C@@H](CC(N)=O)C(=O)N[C@H](C(=O)N[C@@H](Cc1ccc(O)cc1)C(N)=O)[C@@H](C)O)C(C)C)[C@@H](C)O` [Peptide 127] (H-K([γGlu-γGlu-C18 diacid])CNTATCATQRLANFL[Aib]HSSNNFGPILPPTNVGSNTY-NH2; disulfide 2-7; N-terminus assumed): in experiment [1], the “Ratio (selectivity hAMYR vs hCTR, ratio of EC50 values at the two receptors)” value came out at 19.6 and the EC50 (as a rule, the concentration giving half of the maximal effect) amounted to 364 pM. The concentration giving a half-maximal response (EC50) in experiment [2] worked out at 7130 pM.

For the molecule `CC[C@H](C)[C@H](NC(=O)[C@@H]1CCCN1C(=O)CNC(=O)[C@H](Cc1ccccc1)NC(=O)[C@H](CC(N)=O)NC(=O)[C@H](CC(N)=O)NC(=O)[C@H](CO)NC(=O)[C@H](CO)NC(=O)[C@H](Cc1c[nH]cn1)NC(=O)C(C)(C)NC(=O)[C@H](CC(C)C)NC(=O)[C@H](Cc1ccccc1)NC(=O)[C@H](CCC(=O)O)NC(=O)[C@H](C)NC(=O)[C@H](CC(C)C)NC(=O)[C@H](CCCNC(=N)N)NC(=O)[C@H](CCC(N)=O)NC(=O)[C@@H](NC(=O)[C@H](C)NC(=O)[C@@H]1CSSC[C@H](NC(=O)[C@H](CCCCN)NC(=O)[C@@H](N)CCCCNC(=O)CC[C@H](NC(=O)CCCCCCCCCCCCCCCCC(=O)O)C(=O)O)C(=O)N[C@@H](CC(N)=O)C(=O)N[C@@H]([C@@H](C)O)C(=O)N[C@@H](C)C(=O)N[C@@H]([C@@H](C)O)C(=O)N1)[C@@H](C)O)C(=O)N[C@@H](CC(C)C)C(=O)N1CCC[C@H]1C(=O)N1CCC[C@H]1C(=O)N[C@H](C(=O)N[C@@H](CC(N)=O)C(=O)N[C@H](C(=O)NCC(=O)N[C@@H](CO)C(=O)N[C@@H](CC(N)=O)C(=O)N[C@H](C(=O)N[C@@H](Cc1ccc(O)cc1)C(N)=O)[C@@H](C)O)C(C)C)[C@@H](C)O` [Peptide 128] (H-K([γGlu-C18 diacid])KCNTATCATQRLAEFL[Aib]HSSNNFGPILPPTNVGSNTY-NH2; disulfide 3-8; N-terminus assumed), in experiment [1], the “Ratio (selectivity hAMYR vs hCTR, ratio of EC50 values at the two receptors)” value is given as 4.8 and the EC50 turned out to be 118 pM. The EC50 in experiment [2] was determined as 568 pM.

The record behind these values is patent publication US20240067693A1, “POLYPEPTIDES AND USES THEREOF” (MEDIMMUNE LIMITED, priority 2020, published 2024).
